Measurements reported in ChEMBL document CHEMBL5131397, “Discovery and Optimization of Pyrazole Amides as Inhibitors of ELOVL1” (J Med Chem, 2021).
Activity calls are given as the source filed them. No cut-off for these calls is given here.

Legend:
[1] = Volume of distribution at steady state in Beagle dog at 0.5 mg/kg, iv upto 48 hrs by LC/MS/MS analysis; format: ADME, organism-based, Canis lupus familiaris; conditions: in vivo, read-out: Vdss
[2] = target: T1, Very long chain fatty acid elongase 1 (Homo sapiens, UniProt Q9BW60); assay: Inhibition of ELOVL1 (unknown origin) using C22-acyl-CoA as substrate by radiometric enzyme assay
T1 sequence (Q9BW60 whole entry): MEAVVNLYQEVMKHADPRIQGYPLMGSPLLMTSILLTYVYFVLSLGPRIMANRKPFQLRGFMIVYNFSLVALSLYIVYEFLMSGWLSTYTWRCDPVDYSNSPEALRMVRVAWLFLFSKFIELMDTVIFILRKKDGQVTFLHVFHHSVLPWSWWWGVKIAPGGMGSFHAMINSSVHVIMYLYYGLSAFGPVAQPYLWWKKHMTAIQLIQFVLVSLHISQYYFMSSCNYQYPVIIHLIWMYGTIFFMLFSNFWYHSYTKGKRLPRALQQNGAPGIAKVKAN

[3] = Intrinsic clearance in human hepatocytes assessed per million cells; format: ADME, cell-based, Hepatocyte; conditions: read-out: CLH
[4] = Clearance in Beagle dog at 0.5 mg/kg, iv upto 48 hrs by LC/MS/MS analysis; format: ADME, organism-based, Canis lupus familiaris; conditions: in vivo
[5] = Tmax in Cynomolgus monkey at 3 mg/kg, po upto 24 hrs by LC/MS/MS analysis; format: ADME, organism-based, Macaca fascicularis; conditions: in vivo
[6] = target: T1, Very long chain fatty acid elongase 1; assay: Inhibition of ELOVL1 in CALD patient-derived human fibroblast assessed as reduction of C26:0 VLCFA synthesis incubated for 48 hrs by cellular assay; format: cell-based
[7] = target: T2, Very long chain fatty acid elongase 7 (Homo sapiens) (UniProt A1L3X0); assay: Inhibition of ELOVL-7 in human HEK2936E cells assessed as reduction in C22:0 lysophosphatidyl choline synthesis at 100 nM in presence of 13C-labeled acetate measured after 48 hrs; format: cell-based
T2 sequence (whole entry): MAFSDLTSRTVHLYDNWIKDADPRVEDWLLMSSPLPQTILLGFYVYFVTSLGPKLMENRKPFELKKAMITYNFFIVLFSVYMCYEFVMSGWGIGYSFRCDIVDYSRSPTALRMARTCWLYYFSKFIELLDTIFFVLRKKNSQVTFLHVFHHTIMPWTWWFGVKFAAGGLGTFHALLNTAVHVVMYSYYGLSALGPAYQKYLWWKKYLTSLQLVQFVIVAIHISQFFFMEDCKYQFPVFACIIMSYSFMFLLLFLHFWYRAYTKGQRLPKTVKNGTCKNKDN

Fibroblast = assay: Reduction in C26:0 lysophosphatidyl choline synthesis in primary human AMN patient-derived fibroblast incubated for 48 hrs; format: functional, cell-based; conditions: DDE = dose-dependent effect
HEK-293T = assay: Reduction in C26:0 LPC level in isogenic wild-type human HEK-293T cells with ELOVL-1 expression in presence of 13C-labeled acetate measured after 48 hrs by mass spectroscopy; format: functional, cell-based
[8] = Reduction of C26:0 /C16:0 LPC level in ABCD1 KO mouse blood at 5 mg/kg, po qd for 8 months by LC-MS/MS analysis relative to control; format: functional; parameters: scale not given: the % may be the effect or the level left; conditions: 5840 h
Mus musculus [9] = assay: Reduction in C26:0 LPC level in ABCD1 KO mouse blood administered orally qd for 105 days by LC-MS/MS analysis; format: functional, tissue-based; conditions: route po, time 105.0 day, DDE = dose-dependent effect
[10] = Reduction in C26:0 LPC level in ABCD1 knock out mouse blood at or above 4 mg/kg, po qd for 105 days by LC-MS/MS analysis relative to control; format: functional; parameters: scale not given: the % may be the effect or the level left; conditions: time 105 day
[11] = Reduction in C26:0/C16:0 LPC level in wild-type Sprague-Dawley rat at 300 mg/kg, po qd treated for 7 days by LC-MS/MS analysis; format: functional; parameters: scale not given: the % may be the effect or the level left; conditions: time 7 day
[12] = Reduction in C26:0 LPC level in Cynomolgus monkey plasma at 15 mg/kg, po qd for 13 weeks by LC-MS/MS analysis (reference value: 2.495 ng/ml); format: functional, Macaca fascicularis
Mus musculus [13] = assay: Reduction in C26:0/C16:0 LPC level in high fat diet fed ABCD1 knock out mouse blood at 1 to 8 mg/kg, po qd after 7 days of dosing measured on day 14 by LC-MS/MS analysis; format: functional, organism-based; conditions: dose 1-8 mg/kg, time 14.0 day
[14] = Reduction in C26:0/C16:0 LPC level in ABCD1 knock out mouse CNS at 10 mg/kg, po qd measured after 3 months of dosing by LC-MS/MS analysis; format: functional; parameters: scale not given: the % may be the effect or the level left; conditions: 2190 h
[15] = Reduction in C26:0 LPC level in ABCD1 knock out mouse CNS at 4 mg/kg, po qd measured after 6 months of dosing by LC-MS/MS analysis; format: functional; parameters: scale not given: the % may be the effect or the level left; conditions: 4380 h
[16] = Increase in C20:0/C16:0 LPC level in ABCD1 knock out mouse CNS at 1 mg/kg, po qd measured after 3 months of dosing by LC-MS/MS analysis; format: functional; conditions: 2190 h
[17] = Increase in C20:0/C16:0 LPC level in ABCD1 knock out mouse CNS at 10 mg/kg, po qd measured after 3 months of dosing by LC-MS/MS analysis; format: functional; conditions: 2190 h
[18] = Toxicity in Sprague-Dawley rat assessed as ulceration at 5 to 50 mg/kg/day, po administered for 2 to 8 weeks; format: organism-based; conditions: in vivo, dose lower 5 mg/kg/day, time lower 2 weeks, dose upper 50 mg/kg/day, time upper 8 weeks
[19] = Toxicity in Sprague-Dawley rat assessed as corneal neovascularization at 5 mg/kg/day, po administered for 8 weeks by macroscopic observation analysis; format: organism-based; conditions: in vivo, 1344 h
[20] = Toxicity in Sprague-Dawley rat assessed as ocular epithelial atrophy at 5 mg/kg/day, po administered for 8 weeks by microscopic observation analysis; format: organism-based; conditions: in vivo, 1344 h
[21] = Toxicity in Sprague-Dawley rat assessed as ocular stromal fibrosis at 5 mg/kg/day, po administered for 8 weeks by microscopic observation analysis; format: organism-based; conditions: in vivo, 1344 h
[22] = Toxicity in Sprague-Dawley rat assessed as ocular inflammation at 5 mg/kg/day, po administered for 8 weeks by microscopic observation analysis; format: organism-based; conditions: in vivo, 1344 h
[23] = Toxicity in juvenile Sprague-Dawley rat assessed as clonic convulsions 5 to 75 mg/kg/day, po treatment started from postnatal day 75 to 114 days measured after cessation of dosing; format: organism-based; conditions: in vivo, dose lower 5 mg/kg/day, time lower 75 day, dose upper 75 mg/kg/day, time upper 114 day
[24] = Toxicity in Cynomolgus monkey assessed as minimal focal gliosis at 20 to 50 mg/kg/day, po administered for 14 days; format: organism-based, Macaca fascicularis; conditions: in vivo, 336 h, dose 20-50 mg/kg/day, time 14 day
[25] = Toxicity in Cynomolgus monkey assessed as multifocal gliosis at 20 to 50 mg/kg/day, po administered for 14 days; format: organism-based, Macaca fascicularis; conditions: in vivo, 336 h, dose 20-50 mg/kg/day, time 14 day
[26] = Toxicity in Cynomolgus monkey assessed as dry and red scaly areas on abdomen at 5 to 50 mg/kg/day, po administered for 14 days by macroscopic observation analysis; format: organism-based, Macaca fascicularis; conditions: in vivo, 336 h, dose 5-50 mg/kg/day, time 14 day
[27] = Toxicity in Cynomolgus monkey assessed as adverse skin lesions at 20 to 50 mg/kg/day, po administered for 14 days; format: organism-based, Macaca fascicularis; conditions: in vivo, 336 h, dose 20-50 mg/kg/day, time 14 day

Compound O=C(Nc1ccn(-c2ccnc(F)c2)n1)C1(c2ccccc2F)CC1 has a Vd [1] of 7.5 L/kg, an IC50 [2] of 900 nM and a hepatocyte CLint [3] of less than 4 µL/min/1e6 cells. For the same compound, the clearance [4] was 30.4 mL/min/kg, the Tmax [5] was 2.3 h and the IC50 [6] was 20 nM. For the same compound, the inhibition [7] was “Active”, the Activity (Fibroblast) was “Dde” and the Activity (HEK-293T) was “Active”. For the same compound, the Activity [8] was 60%, the Activity (Mus musculus [9]) was “Dde” and the Activity [10] was 85%. For the same compound, the Activity [11] was 85%, the Activity [12] was 0.4475 ng/mL and the Activity (Mus musculus [13]) was “Active”. For the same compound, the Activity [14] was 34%, the Activity [15] was 57% and the Activity [16] was 18%. The Activity [17] was 38%, the Activity [18] was “Toxic” and the Activity [19] was “Toxic”. For the same compound, the Activity [20] was “Toxic”, the Activity [21] was “Toxic” and the Activity [22] was “Toxic”. The Activity [23] was “Toxic”, the Activity [24] was “Toxic” and the Activity [25] was “Toxic”. For the same compound, the Activity [26] was “Toxic” and the Activity [27] was “Toxic”.
